A short description of data set [1]: Permeability of the compound in PRISMA HT buffer at pH 7.4 at 10 umol/L incubated for 3 hrs bt PAMPA based LC/MS/MS analysis. The format is ADME. The following applies: dose 10 µmol/L, read-out: permeability. In general terms: The PAMPA barrier holds no transporters, so it reflects passive diffusion.
A short description of data set [2]: Kinetic solubility of compound by UV- absorbance analysis.
Data set [3] is described as follows: Octanol-water partition coefficient, logD of the compound at pH 7.4 by HPLC analysis. The format is physicochemical.
For data set [4], the target named is Adenylate cyclase type 10 (Homo sapiens, UniProt Q96PN6).
Adenylate cyclase type 10, sequence (Q96PN6 whole entry): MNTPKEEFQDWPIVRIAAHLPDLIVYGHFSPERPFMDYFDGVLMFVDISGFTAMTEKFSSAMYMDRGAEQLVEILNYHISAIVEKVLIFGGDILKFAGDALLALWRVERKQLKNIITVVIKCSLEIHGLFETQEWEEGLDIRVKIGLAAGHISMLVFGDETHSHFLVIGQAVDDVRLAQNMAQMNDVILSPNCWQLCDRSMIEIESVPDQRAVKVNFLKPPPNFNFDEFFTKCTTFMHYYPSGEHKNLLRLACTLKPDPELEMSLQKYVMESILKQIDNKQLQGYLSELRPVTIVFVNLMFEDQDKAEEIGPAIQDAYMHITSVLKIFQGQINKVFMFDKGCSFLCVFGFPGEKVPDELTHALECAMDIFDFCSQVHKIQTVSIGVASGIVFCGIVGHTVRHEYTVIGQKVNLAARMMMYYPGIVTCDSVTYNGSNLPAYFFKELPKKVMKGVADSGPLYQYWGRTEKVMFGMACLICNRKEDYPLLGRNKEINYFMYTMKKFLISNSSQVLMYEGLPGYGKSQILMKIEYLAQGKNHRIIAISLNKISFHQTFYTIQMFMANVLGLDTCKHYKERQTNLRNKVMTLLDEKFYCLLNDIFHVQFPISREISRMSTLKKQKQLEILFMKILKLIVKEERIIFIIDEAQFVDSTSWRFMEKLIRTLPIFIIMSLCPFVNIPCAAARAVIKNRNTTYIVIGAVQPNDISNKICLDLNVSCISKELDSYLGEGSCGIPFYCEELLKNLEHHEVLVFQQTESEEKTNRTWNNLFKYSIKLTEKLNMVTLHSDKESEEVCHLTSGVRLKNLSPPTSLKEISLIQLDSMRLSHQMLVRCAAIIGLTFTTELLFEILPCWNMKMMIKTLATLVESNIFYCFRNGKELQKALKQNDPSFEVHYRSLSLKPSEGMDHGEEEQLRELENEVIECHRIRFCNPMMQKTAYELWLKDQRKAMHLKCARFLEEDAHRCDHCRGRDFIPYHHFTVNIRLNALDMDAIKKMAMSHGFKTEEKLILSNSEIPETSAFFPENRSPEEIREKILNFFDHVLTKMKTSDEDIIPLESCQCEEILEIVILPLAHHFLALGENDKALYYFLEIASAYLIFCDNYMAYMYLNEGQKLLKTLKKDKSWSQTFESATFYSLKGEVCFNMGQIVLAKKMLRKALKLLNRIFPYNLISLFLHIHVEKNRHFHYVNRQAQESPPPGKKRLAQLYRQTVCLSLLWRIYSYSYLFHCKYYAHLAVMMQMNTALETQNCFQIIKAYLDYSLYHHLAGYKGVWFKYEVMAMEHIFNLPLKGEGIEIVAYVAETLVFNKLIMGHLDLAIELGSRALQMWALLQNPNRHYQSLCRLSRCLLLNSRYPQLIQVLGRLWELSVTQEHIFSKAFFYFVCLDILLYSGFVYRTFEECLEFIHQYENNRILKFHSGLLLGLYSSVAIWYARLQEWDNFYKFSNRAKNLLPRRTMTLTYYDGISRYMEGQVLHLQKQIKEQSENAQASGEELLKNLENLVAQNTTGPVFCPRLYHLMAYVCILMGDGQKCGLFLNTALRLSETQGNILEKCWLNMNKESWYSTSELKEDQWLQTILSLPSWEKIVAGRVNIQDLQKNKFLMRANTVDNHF
Description: Inhibition of human soluble adenylyl cyclase assessed as reduction in cAMP levels in the presence of alpha-32p labeled ATP by biochemical assay
Data set [5] can be described thus: Oral bioavailability in mouse. The data set is classed as ADME, organism-based. The following applies: in vivo.
Data set [6] is described as follows: Clearance in mouse liver microsomes. The data set is classed as ADME, Microsome. The following applies: read-out: CLH. On the technique in general: Microsomes from liver hold many membrane-bound enzymes, among them those of drug oxidation.
A short description of data set [7]: Clearance in human liver microsomes. The data set is classed as ADME, Microsome. To be noted: read-out: CLH.
A short description of data set [8]: Bioavailability in mouse. The data set is classed as ADME, organism-based. To be noted: in vivo, dose 20 mg/kg.
Data set [9] can be described thus: Cmax in CD1 mouse at 20 mg/kg, po measured up to 24 hrs. The data set is classed as ADME, organism-based. On the set-up: route oral, dose 20 mg/kg, time <=24. The following applies: in vivo.
Data set [10] in a line: Cmax in CD1 mouse at 20 mg/kg, ip measured up to 24 hrs. The data set is classed as ADME, organism-based. The arrangement: route intraperitoneal, dose 20 mg/kg, time <=24. To be noted: in vivo.
Data set [11] can be described thus: Mean residence time in CD1 mouse at 20 mg/kg, po measured up to 24 hrs. To be noted: in vivo. The data set is classed as ADME, organism-based.
Data set [12] is described as follows: AUC in CD1 mouse at 20 mg/kg, po measured up to 24 hrs. The format is ADME, organism-based. The following applies: in vivo. The arrangement: route oral, dose 20 mg/kg, time <=24.
Data set [13] is described as follows: Mean residence time in CD1 mouse at 20 mg/kg, ip measured up to 24 hrs. The data set is classed as ADME, organism-based. To be noted: in vivo.
Data set [14] is described as follows: AUC in CD1 mouse at 20 mg/kg, ip measured up to 24 hrs. The data set is classed as ADME, organism-based. The arrangement: route intraperitoneal, dose 20 mg/kg, time <=24. The following applies: in vivo.

In brackets after ≈: the same amount, converted by molar mass. Bounds are passed on as bounds.

The values that follow come from ChEMBL document CHEMBL4837243, “Discovery of TDI-10229: A Potent and Orally Bioavailable Inhibitor of Soluble Adenylyl Cyclase (sAC, ADCY10)” (ACS Med Chem Lett, 2021).

Broadly, the solubility (kinetic) is the concentration staying in solution when a stock, usually in DMSO, is diluted into the medium. The term logD denotes the decadic logarithm of the distribution of all forms, ionised or not, between an organic phase and buffer at a given pH. A word on the IC50: it is the concentration at which inhibition is half-maximal. A low value points to higher potency. Broadly, the bioavailability is dose-corrected exposure relative to a reference, in per cent. A higher bioavailability goes with good availability. Usually Cmax stands for the maximum level reached in the sampled fluid or tissue. What is called MRT is a mean duration of stay, worked out from the concentration-time curve. Usually AUC stands for concentration integrated over time. Low readings indicate low exposure, high ones high exposure.

Take `Cn1cc(Cc2cccc(F)c2)c(-c2cc(Cl)nc(N)n2)n1`: the Papp at 3 h, 10 µM in [1] is 25.7 ×10⁻⁶ cm/s. For the same compound, the solubility (kinetic) in [2] is 7.5 µg/mL (≈ 23.6 µM). The compound also yielded a logD in [3] of 2.8.

The compound `Cc1cc(-c2nn(C)cc2Cc2cccs2)nc(N)n1` returned a half-inhibitory concentration (IC50) in [4] of more than 1 µM.

On to `Cc1c(Cc2cccs2)c(-c2cc(Cl)nc(N)n2)nn1C`, for which the Papp at 3 h, 10 µM in data set [1] turned out to be 28 ×10⁻⁶ cm/s. Further, the kinetic solubility in data set [2] was 0.38 µg/mL (≈ 1.19 µM). Besides, in data set [3], the pH-dependent lipophilicity (logD) came out at 2.7.

For `Cc1ccc(Cc2cn(C)nc2-c2cc(Cl)nc(N)n2)s1`, the IC50 in [4] is more than 1 µM.

With `Cn1cc(Cc2cccs2)c(-c2cc(Cl)nc(N)n2)n1`, the Papp at 3 h, 10 µM in data set [1] turned out to be 25.8 ×10⁻⁶ cm/s. In data set [2], this compound showed a kinetic solubility of 6.3 µg/mL (≈ 20.6 µM). In data set [3], this compound registered a log distribution coefficient (logD) of 2.5.

With `Nc1nc(Cl)cc(N(Cc2cccs2)C2CC2)n1`, the bioavailability in [5] is less than 5%. For the same compound, the microsomal CLint in [6] was more than 768 µL/min/mg; in [7], 360 µL/min/mg.

In turn, `CNC(=O)c1c(Cc2ccccc2)c(-c2cc(Cl)nc(N)n2)nn1C` had an IC50 in data set [4] of more than 10 µM.

`CN(C)Cc1c(Cc2ccccc2)c(-c2cc(Cl)nc(N)n2)nn1C`: the half-inhibitory concentration (IC50) in data set [4] was more than 10 µM.

Take `Cc1c(Cc2ccnn2C)c(-c2cc(Cl)nc(N)n2)nn1C`: the IC50 in data set [4] is more than 10 µM.

Turning to `Cc1c(Cc2ccccc2)c(-c2cc(Cl)nc(N)n2)nn1C`, in [8], the bioavailability came out at 59%. In addition, the highest concentration (Cmax) in data set [9] was found to be 15.5 µM; in data set [10] it was 45 µM. Moreover, the Papp at 3 h, 10 µM in data set [1] was 27.4 ×10⁻⁶ cm/s. Further, the MRT in [11] is 3.95 h; in [13], 2.82 h. Further, in data set [2], the solubility (kinetic) worked out at 1.3 µg/mL (≈ 4.14 µM). In addition, the AUC at 24 h in [12] was 94 µM·h; in [14] it was 72 µM·h. This compound showed a logD in data set [3] of 2.9.
